Test results reported in ChEMBL document CHEMBL1132517, “Nitrobenzyl carbamate prodrugs of enediynes for nitroreductase gene-directed enzyme prodrug therapy (GDEPT)” (Bioorg Med Chem Lett, 1999).
Where “and” joins values, the source holds several entries; their conditions need not be identical. Equal entries are not always repeated.

Columns and labels:
[1] = Oxygen dependence of cytotoxicity was assessed by clonogenic assay using stirred suspension cultures of AA8 cells after 1 hr under aerobic conditions; assay type: functional, Cricetulus griseus, CHO-AA8
[2] = Ratio of cytotoxicities against SKOV-3 cell line to NTR transfectant; assay type: functional, SK-OV-3
[3] = Ratio of oxygen dependence of cytotoxicities of UV4 cells in aerobic condition to anoxic condition; assay type: functional
[4] = system: SK-OV-3; test: In vitro cytotoxicity against SKOV-3 cells in the absence of co-factor; assay type: functional, cell-based; conditions: Homo sapiens
[5] = system: T78-1; test: In vitro cytotoxicity against Chinese hamster V79-derived cell line T78-1 transfected with Escherichia coli B nitroreductase (NTR); assay type: functional, cell-based; conditions: Cricetulus griseus
[6] = system: SK-OV-3; test: In vitro cytotoxicity against SKOV-3 cells in the presence of 1 mM NADH co-factor; assay type: functional, cell-based; conditions: Homo sapiens
[7] = system: WiDr; test: In vitro cytotoxicity against man colon carcinoma line WiDr cell lines transfected with Escherichia coli B nitroreductase (NTR); assay type: functional, cell-based; conditions: Homo sapiens
[8] = Oxygen dependence of cytotoxicity was assessed by clonogenic assay using stirred suspension cultures of AA8 cells after 4 hr under anoxic conditions; assay type: functional, Cricetulus griseus, CHO-AA8
[9] = Oxygen dependence of cytotoxicity was assessed by clonogenic assay using stirred suspension cultures of ERCC-1 mutant UV4 cells after 4 hr under anoxic conditions; assay type: functional, Cricetulus griseus
[10] = Oxygen dependence of cytotoxicity was assessed by clonogenic assay using stirred suspension cultures of ERCC-1 mutant UV4 cells after 1 hr under anoxic conditions; assay type: functional, Cricetulus griseus
[11] = Oxygen dependence of cytotoxicity was assessed by clonogenic assay using stirred suspension cultures of ERCC-1 mutant UV4 cells after 4 hr under aerobic conditions; assay type: functional, Cricetulus griseus
[12] = Oxygen dependence of cytotoxicity was assessed by clonogenic assay using stirred suspension cultures of AA8 cells after 4 hr under aerobic conditions; assay type: functional, Cricetulus griseus, CHO-AA8
[13] = Ratio of cytotoxicity against SKOV-3 cells in the absence of co-factor to the cytotoxicity in the presence of co-factor and NTR; assay type: functional, SK-OV-3
[14] = Ratio of cytotoxicities against T78-1 cell line to NTR transfectant; assay type: functional
[15] = system: WiDr; test: (§1) Ratio of cytotoxicities against WiDr cell line to NTR transfectant; assay type: functional, Homo sapiens
[16] = Oxygen dependence of cytotoxicity was assessed by clonogenic assay using stirred suspension cultures of ERCC-1 mutant UV4 cells after 1 hr under aerobic conditions; assay type: functional, Cricetulus griseus
[17] = system: SK-OV-3; test: In vitro cytotoxicity against SKOV-3 cells in the presence of 1 mM NADH co-factor and 1 ug/mL Escherichia coli B nitroreductase (NTR); assay type: functional, cell-based; conditions: Homo sapiens
[18] = Oxygen dependence of cytotoxicity was assessed by clonogenic assay using stirred suspension cultures of AA8 cells after 1 hr under anoxic conditions; assay type: functional, Cricetulus griseus, CHO-AA8
[19] = Oxygen dependence of cytotoxicity was assessed by clonogenic assay using stirred suspension cultures of ERCC-1 mutant UV4 cells after 3h under anoxic conditions; assay type: functional, Cricetulus griseus
[20] = Ratio of oxygen dependence of cytotoxicities of AA8 cells in aerobic condition to anoxic condition; assay type: functional, Cricetulus griseus, CHO-AA8
[21] = Oxygen dependence of cytotoxicity was assessed by clonogenic assay using stirred suspension cultures of AA8 cells after 3h under anoxic conditions; assay type: functional, Cricetulus griseus, CHO-AA8
[22] = Oxygen dependence of cytotoxicity was assessed by clonogenic assay using stirred suspension cultures of ERCC-1 mutant UV4 cells after 3h under aerobic conditions; assay type: functional, Cricetulus griseus
[23] = Oxygen dependence of cytotoxicity was assessed by clonogenic assay using stirred suspension cultures of AA8 cells after 3h under aerobic conditions; assay type: functional, Cricetulus griseus, CHO-AA8
[24] = Oxygen dependence of cytotoxicity was assessed by clonogenic assay using stirred suspension cultures of ERCC-1 mutant UV4 cells after 8 hr under anoxic conditions; assay type: functional, Cricetulus griseus
[25] = Oxygen dependence of cytotoxicity was assessed by clonogenic assay using stirred suspension cultures of ERCC-1 mutant UV4 cells after 8 hr under aerobic conditions; assay type: functional, Cricetulus griseus
[26] = as §1; assay type: functional
[27] = system: SK-OV-3; test: In vitro for cytotoxicity against SKOV-3 cells in the presence of 1 mM NADH co-factor; assay type: functional, cell-based; conditions: Homo sapiens
[28] = system: SK-OV-3; test: In vitro for cytotoxicity against SKOV-3 cells in the presence of 1 mM NADH co-factor and 1 ug/mL Escherichia coli B nitroreductase (NTR); assay type: functional, cell-based; conditions: Homo sapiens

| Structure (SMILES) | Selectivity [2] | C10 air/C10 N2 [3] | IC50 [4] | IC50 [5] | IC50 [6] | IC50 [7] | Selectivity [13] | Selectivity [14] | IC50 [17] | C10 N2 [19] | C10 N2 [21] | C10 air [22] | C10 air [23] | Selectivity [26] | also measured |
| --- | --- | --- | --- | --- | --- | --- | --- | --- | --- | --- | --- | --- | --- | --- | --- |
| O=C(OCc1ccc([N+](=O)[O-])cc1)N1c2ccc(OCCO)cc2[C@@]23O[C@]24CCC[C@H]3C#C/C=C\C#C[C@H]14 | 21.3 | 1.5 and 1.1 | 500 nM | 2400 nM | 500 nM | 1810 nM | 13 | 111 | 39 nM | – | – | – | – | – | C10 air [1]: 75 µM; C10 N2 [8]: >100 µM; C10 N2 [9]: 12 µM; C10 N2 [10]: 60 µM; C10 air [11]: 11 µM; C10 air [12]: 22 µM; Selectivity [15]: 135; C10 air [16]: 40 µM; C10 N2 [18]: >100 µM |
| O=C(OCc1ccccc1[N+](=O)[O-])N1c2ccccc2[C@@]23O[C@]24CCC[C@H]3C#C/C=C\C#C[C@H]14 | – | 0.4 | > 20000 nM | 8900 nM | > 20000 nM | > 20000 nM | – | 1.9 | > 20000 nM | 53 µM | 200 µM | 140 µM | 120 µM | – | C10 air/C10 N2 [20]: >1.7 |
| O=C(OCc1ccc([N+](=O)[O-])cc1)N1c2ccccc2[C@@]23O[C@]24CCC[C@H]3C#C/C=C\C#C[C@H]14 | 264 | – | 20400 nM | 11100 nM | > 20000 nM | 8400 nM | 95.9 | 54 | 260 nM | >100 µM | >100 µM | >100 µM | >100 µM | 97 | C10 N2 [24]: 70 µM; C10 air [25]: 70 µM; ratio [3]: 1 |
| NC(=O)c1cc(N2CC2)c([N+](=O)[O-])cc1[N+](=O)[O-] [TRETAZICAR] | 357 | – | – | – | – | 565000 nM | 183 | 1630 | – | – | – | – | – | 51 | IC50 [27]: 760 nM; IC50 [28]: 1010 nM |
